# Assay results taken from PMC8162404, “Proteomimetic surface fragments distinguish targets by function” (Chemical Science, 2020).
# Read-outs that look alike come from different tables or passages of the source.
# What was measured:
# Assay in all cases: Pull-down assay with immobilized protein and LSM libraries
# S100A4 = target: T1, S100A4 (Homo sapiens, UniProt P26447); format: binding; details: 1:1 binding assumed, read-out: Surface mapping KD (apparent)
# T1 construct: made in house; host or cells: Escherichia coli BL21(DE3)
# In short: (§1)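 Buffers were HEPES pH 7.4 with 150 mM NaCl, plus 1 mM TCEP and 1 mM CaCl2 (50 mM HEPES) for S100A4 and S100B, 1 mM TCEP for Gal-1, and no additive for RecQ-WH. Immobilized protein at 64 µM was equilibrated 30 min with the LSM sublibrary, and unbound probes were measured by LC-MS.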
# Gal-1 = target: T2, Gal-1 (Homo sapiens, UniProt P09382); format: binding; details: 1:1 binding assumed, read-out: Surface mapping KD (apparent)
# T2 construct: made in house; host or cells: E. coli BL21(DE3)
# In short: as §1
# S100B = target: T3, S100B (Homo sapiens, UniProt P04271); format: binding; details: 1:1 binding assumed, read-out: Surface mapping KD (apparent)
# T3 construct: made in house; host or cells: Escherichia coli BL21(DE3)
# T3 sequence (P04271 1-92): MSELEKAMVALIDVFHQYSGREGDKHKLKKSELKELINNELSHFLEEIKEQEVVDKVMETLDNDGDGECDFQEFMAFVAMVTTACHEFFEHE
# In short: as §1
# CaM = target: T4, CaM (Bos taurus, UniProt P62157); format: binding, bovine; details: 1:2 stoichiometry assumed, read-out: Surface mapping KD (apparent)
# T4 construct: made in house; host or cells: E. coli BL21 (DE3)
# Method: Pull-down assays with immobilized test proteins and foldameric LSM libraries were carried out. Proteins were equilibrated with LSM probes, and equilibrium bound fractions (FB) were determined from the unbound fractions measured by HPLC-MS methods. Hits were corrected with background binding of the resin. The protocol allowed all binding events to equilibrate irrespective of affinity, specificity, and binding kinetics. This was essential to judge overall druggability and promiscuity. Importantly, the concentration of protein and the total concentration of foldameric LSMs were equimolar, which minimized competition between the probes. This experimental setup approximated independent binding of individual library members. Results were visualized as heat maps of dissociation constants (Fig. 3).
# Pull-down assay and data analysis
# Pull-down assay. LSM sublibraries were screened separately as previously described.(2) Experiments were performed in the following buffers: (i) 20 mM pH 7.4 HEPES, 150 mM NaCl, 5 mM CaCl2 for CaM; (ii) 50 mM pH 7.4 HEPES, 150 mM NaCl, 1 mM TCEP, 1 mM CaCl2 for S100 proteins; (iii) 20 mM pH 7.4 HEPES, 150 mM NaCl, 1 mM TCEP for Gal-1 and (iv) 20 mM pH 7.4 HEPES, 150 mM NaCl for RecQ-WH. Assays were performed in paper filter spin cups (Thermo Scientific) with sample volumes of 100 µl. Hexahistidine-tagged proteins were immobilized on previously washed Co-NTA resin (TALON, Takara Bio USA, Inc., […]
# LSM sublibrary was added, in which each of the 64 library members were used at a concentration of 1 µM. Samples were incubated at room temperature for 30 min with shaking at 100 rpm. Then, samples were centrifuged at 1000 rpm for 2 min and washed with 100 µl pull-down buffer to remove unbound compounds.
# The control experiments were performed using the same compounds and the resin but without the immobilized protein. In case of competitive assays, competitor peptides were added to LSM sublibrary samples in 200 µM final concentration. In the case of Gal-1, lactose (competitor) was used in a concentration of 10 mM. Experiments were performed at least twice. Mean […]
# LC-MS methods and parameters. HPLC/ESI-MS analysis was used to characterize the samples from the pull-down assay. LC-MS analysis was performed with a Thermo Scientific Dionex UltiMate 3000 HPLC system interfaced to an LTQ ion trap mass spectrometer (Thermo Electron Corp., San Jose, CA, USA). Samples were injected onto an Aeris Widepore XB-C18 (250 x 4.6 mm) analytical HPLC column using gradient elution 5-80 % solution B during 25 minutes. For pull-down samples, eluent composition was 0.1% acetic acid in distilled water (Solution A) and 0.1% acetic acid in acetonitrile (solution B). Mass spectra were acquired in full scan mode from 200 to 2000 m/z range. For overlapping peaks, selective reaction monitoring (SRM) was […]
# MS data analysis. Thermo Xcalibur 2.2 software was used for peak identification and integration. The majority of the foldameric fragments could be resolved independently via HPLC-MS/MS measurements based on molecular weight, MS fragmentation pattern and retention time. Peaks of some foldamers with β3-hIle or β3-hLeu in position R2 could not be resolved, these were integrated and averaged. In the processing method, each sample component was associated to a chromatographic peak based on previously identified mass (m/z) and retention time (ref (2) and Table S7-10). Using ICIS peak detection algorithm, the general detection and integration criteria were: smoothing points: 5, baseline window: 80, area noise factor: 5, peak noise factor: 10. Using these processing setups, all raw data files were reprocessed together and analyzed. Errors in peak identification during the automatic processing were corrected manually.
# Calculation of the discussed parameters
# 1. Bound fractions (FB.) were calculated from the HPLC-MS intensity loss of the LSM probes compared to the control where no protein was immobilized to the resin: […]
# T2 sequence (P09382 whole entry): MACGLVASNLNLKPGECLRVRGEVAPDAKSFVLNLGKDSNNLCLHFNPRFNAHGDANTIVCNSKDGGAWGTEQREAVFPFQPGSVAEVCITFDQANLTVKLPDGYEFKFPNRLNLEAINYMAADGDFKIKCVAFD
# T1 sequence (P26447 whole entry): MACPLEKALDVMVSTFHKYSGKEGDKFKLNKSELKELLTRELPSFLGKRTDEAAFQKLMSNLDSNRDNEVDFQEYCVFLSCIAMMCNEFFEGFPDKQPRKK
smiles,measurement,setting,value
CC[C@H](C)[C@@H](CC(=O)N[C@H]1CCC[C@@H]1C(=O)N[C@H]1CCC[C@@H]1C(N)=O)NC(=O)[C@H]1CCC[C@@H]1NC(=O)[C@H]1CCC[C@@H]1NC(=O)C[C@H](CC(=O)O)NC(=O)[C@H]1CCC[C@@H]1NC(=O)[C@H]1CCC[C@@H]1N [H12 DI],Kd,S100A4; H12 library,449 µM
same,Kd,Gal-1; H12 library,249 µM
N=C(N)NCCC[C@@H](CC(=O)N[C@H]1CCC[C@@H]1C(=O)N[C@H]1CCC[C@@H]1C(N)=O)NC(=O)[C@H]1CCC[C@@H]1NC(=O)[C@H]1CCC[C@@H]1NC(=O)C[C@H](CC(N)=O)NC(=O)[C@H]1CCC[C@@H]1NC(=O)[C@H]1CCC[C@@H]1N [H12 NR],Kd,S100A4; H12 library,245 µM
same,Kd,S100B; H12 library,106 µM
C[C@@H](CC(=O)N[C@H]1CCC[C@@H]1C(=O)N[C@H]1CCC[C@@H]1C(=O)N[C@H](CC(=O)N[C@H]1CCC[C@@H]1C(=O)N[C@H]1CCC[C@@H]1C(N)=O)Cc1c[nH]c2ccccc12)NC(=O)[C@H]1CCC[C@@H]1NC(=O)[C@H]1CCC[C@@H]1N [H12 AW],Kd,CaM; H12 library,234 µM
same,Kd,Gal-1; H12 library,355 µM
same,Kd,S100B; H12 library,62 µM
N=C(N)NCCC[C@@H](CC(=O)N[C@H]1CCC[C@@H]1C(=O)N[C@H]1CCC[C@@H]1C(N)=O)NC(=O)[C@H]1CCC[C@@H]1NC(=O)[C@H]1CCC[C@@H]1NC(=O)C[C@H](CCCCN)NC(=O)[C@H]1CCC[C@@H]1NC(=O)[C@H]1CCC[C@@H]1N [H12 KR],Kd,CaM; H12 library,330 µM
same,Kd,Gal-1; H12 library,231 µM
same,Kd,S100B; H12 library,146 µM
NCCCC[C@@H](CC(=O)N[C@H]1CCCC[C@@H]1C(N)=O)NC(=O)[C@H]1CCCC[C@@H]1NC(=O)[C@H]1CCCC[C@@H]1NC(=O)C[C@H](CO)NC(=O)[C@H]1CCCC[C@@H]1N [H14 SK],Kd,CaM; H14 library,91 µM
same,Kd,Gal-1; H14 library,438 µM
same,Kd,S100B; H14 library,181 µM
C[C@@H](CC(=O)N[C@H]1CCCC[C@@H]1C(=O)N[C@H]1CCCC[C@@H]1C(=O)N[C@@H](CCCNC(=N)N)CC(=O)N[C@H]1CCCC[C@@H]1C(N)=O)NC(=O)[C@H]1CCCC[C@@H]1N [H14 AR],Kd,CaM; H14 library,126 µM
same,Kd,Gal-1; H14 library,348 µM
same,Kd,S100B; H14 library,126 µM
CC(C)C[C@@H](CC(=O)N[C@H]1CCC[C@@H]1C(=O)N[C@H]1CCC[C@@H]1C(=O)N[C@H](CC(=O)N[C@H]1CCC[C@@H]1C(=O)N[C@H]1CCC[C@@H]1C(N)=O)C(C)C)NC(=O)[C@H]1CCC[C@@H]1NC(=O)[C@H]1CCC[C@@H]1N [H12 LV],Kd,CaM; H12 library,270 µM
same,Kd,Gal-1; H12 library,468 µM
same,Kd,S100B; H12 library,116 µM
CC(C)C[C@@H](CC(=O)N[C@H]1CCC[C@@H]1C(=O)N[C@H]1CCC[C@@H]1C(N)=O)NC(=O)[C@H]1CCC[C@@H]1NC(=O)[C@H]1CCC[C@@H]1NC(=O)C[C@H](CC(=O)O)NC(=O)[C@H]1CCC[C@@H]1NC(=O)[C@H]1CCC[C@@H]1N [H12 DL],Kd,S100A4; H12 library,449 µM
same,Kd,Gal-1; H12 library,249 µM
N=C(N)NCCC[C@@H](CC(=O)N[C@H]1CCC[C@@H]1C(=O)N[C@H]1CCC[C@@H]1C(=O)N[C@@H](CCCCN)CC(=O)N[C@H]1CCC[C@@H]1C(=O)N[C@H]1CCC[C@@H]1C(N)=O)NC(=O)[C@H]1CCC[C@@H]1NC(=O)[C@H]1CCC[C@@H]1N [H12 RK],Kd,CaM; H12 library,330 µM
same,Kd,Gal-1; H12 library,231 µM
same,Kd,S100B; H12 library,146 µM
NC(=O)CC[C@@H](CC(=O)N[C@H]1CCC[C@@H]1C(=O)N[C@H]1CCC[C@@H]1C(=O)N[C@H](CC(=O)N[C@H]1CCC[C@@H]1C(=O)N[C@H]1CCC[C@@H]1C(N)=O)Cc1c[nH]c2ccccc12)NC(=O)[C@H]1CCC[C@@H]1NC(=O)[C@H]1CCC[C@@H]1N [H12 QW],Kd,CaM; H12 library,55 µM
same,Kd,Gal-1; H12 library,412 µM
same,Kd,S100B; H12 library,170 µM
NC(=O)[C@H]1CCC[C@@H]1NC(=O)[C@H]1CCC[C@@H]1NC(=O)C[C@H](Cc1ccc(O)cc1)NC(=O)[C@H]1CCC[C@@H]1NC(=O)[C@H]1CCC[C@@H]1NC(=O)C[C@H](Cc1ccc(O)cc1)NC(=O)[C@H]1CCC[C@@H]1NC(=O)[C@H]1CCC[C@@H]1N [H12 YY],Kd,CaM; H12 library,443 µM
same,Kd,Gal-1; H12 library,243 µM
same,Kd,S100B; H12 library,128 µM
NC(=O)[C@H]1CCC[C@@H]1NC(=O)[C@H]1CCC[C@@H]1NC(=O)C[C@H](Cc1c[nH]c2ccccc12)NC(=O)[C@H]1CCC[C@@H]1NC(=O)[C@H]1CCC[C@@H]1NC(=O)C[C@H](CO)NC(=O)[C@H]1CCC[C@@H]1NC(=O)[C@H]1CCC[C@@H]1N [H12 SW],Kd,CaM; H12 library,41 µM
same,Kd,Gal-1; H12 library,459 µM
same,Kd,S100B; H12 library,114 µM
CC(C)C[C@@H](CC(=O)N[C@H]1CCCC[C@@H]1C(=O)N[C@H]1CCCC[C@@H]1C(=O)N[C@@H](CCC(=O)O)CC(=O)N[C@H]1CCCC[C@@H]1C(N)=O)NC(=O)[C@H]1CCCC[C@@H]1N [H14 LE],Kd,S100A4; H14 library,427 µM
same,Kd,Gal-1; H14 library,463 µM
NC(=O)[C@H]1CCCC[C@@H]1NC(=O)C[C@H](CCC(=O)O)NC(=O)[C@H]1CCCC[C@@H]1NC(=O)[C@H]1CCCC[C@@H]1NC(=O)C[C@H](Cc1ccc(O)cc1)NC(=O)[C@H]1CCCC[C@@H]1N [H14 YE],Kd,S100A4; H14 library,371 µM
C[C@@H](O)[C@@H](CC(=O)N[C@H]1CCC[C@@H]1C(=O)N[C@H]1CCC[C@@H]1C(N)=O)NC(=O)[C@H]1CCC[C@@H]1NC(=O)[C@H]1CCC[C@@H]1NC(=O)C[C@H](Cc1c[nH]c2ccccc12)NC(=O)[C@H]1CCC[C@@H]1NC(=O)[C@H]1CCC[C@@H]1N [H12 WT],Kd,CaM; H12 library,365 µM
same,Kd,Gal-1; H12 library,448 µM
same,Kd,S100B; H12 library,56 µM
CC[C@H](C)[C@@H](CC(=O)N[C@H]1CCC[C@@H]1C(=O)N[C@H]1CCC[C@@H]1C(=O)N[C@@H](CCCNC(=N)N)CC(=O)N[C@H]1CCC[C@@H]1C(=O)N[C@H]1CCC[C@@H]1C(N)=O)NC(=O)[C@H]1CCC[C@@H]1NC(=O)[C@H]1CCC[C@@H]1N [H12 IR],Kd,CaM; H12 library,236 µM
same,Kd,Gal-1; H12 library,120 µM
same,Kd,S100B; H12 library,39 µM
CC(C)[C@@H](CC(=O)N[C@H]1CCC[C@@H]1C(=O)N[C@H]1CCC[C@@H]1C(=O)N[C@@H](CCC(N)=O)CC(=O)N[C@H]1CCC[C@@H]1C(=O)N[C@H]1CCC[C@@H]1C(N)=O)NC(=O)[C@H]1CCC[C@@H]1NC(=O)[C@H]1CCC[C@@H]1N [H12 VQ],Kd,S100A4; H12 library,497 µM
same,Kd,Gal-1; H12 library,436 µM
C[C@@H](CC(=O)N[C@H]1CCC[C@@H]1C(=O)N[C@H]1CCC[C@@H]1C(N)=O)NC(=O)[C@H]1CCC[C@@H]1NC(=O)[C@H]1CCC[C@@H]1NC(=O)C[C@H](Cc1c[nH]c2ccccc12)NC(=O)[C@H]1CCC[C@@H]1NC(=O)[C@H]1CCC[C@@H]1N [H12 WA],Kd,CaM; H12 library,303 µM
same,Kd,Gal-1; H12 library,385 µM
same,Kd,S100B; H12 library,60 µM
CC[C@H](C)[C@@H](CC(=O)N[C@H]1CCC[C@@H]1C(=O)N[C@H]1CCC[C@@H]1C(N)=O)NC(=O)[C@H]1CCC[C@@H]1NC(=O)[C@H]1CCC[C@@H]1NC(=O)C[C@H](CCCCN)NC(=O)[C@H]1CCC[C@@H]1NC(=O)[C@H]1CCC[C@@H]1N [H12 KI],Kd,CaM; H12 library,314 µM
same,Kd,Gal-1; H12 library,250 µM
same,Kd,S100B; H12 library,71 µM
